Each structure is given as a SMILES string.

As a reminder, the IC50 is the midpoint of a concentration-inhibition curve.

The test has as its target T1, human FAAH (Fatty Acid Amide Hydrolase) (Homo sapiens, UniProt O00519).
T1 construct: The full length FAAH was subcloned into the mammalian expression vector, pcDEF.neo, using XbaI and EcoRI restriction sites; expressed in transfected cells
T1 sequence (O00519 1-579): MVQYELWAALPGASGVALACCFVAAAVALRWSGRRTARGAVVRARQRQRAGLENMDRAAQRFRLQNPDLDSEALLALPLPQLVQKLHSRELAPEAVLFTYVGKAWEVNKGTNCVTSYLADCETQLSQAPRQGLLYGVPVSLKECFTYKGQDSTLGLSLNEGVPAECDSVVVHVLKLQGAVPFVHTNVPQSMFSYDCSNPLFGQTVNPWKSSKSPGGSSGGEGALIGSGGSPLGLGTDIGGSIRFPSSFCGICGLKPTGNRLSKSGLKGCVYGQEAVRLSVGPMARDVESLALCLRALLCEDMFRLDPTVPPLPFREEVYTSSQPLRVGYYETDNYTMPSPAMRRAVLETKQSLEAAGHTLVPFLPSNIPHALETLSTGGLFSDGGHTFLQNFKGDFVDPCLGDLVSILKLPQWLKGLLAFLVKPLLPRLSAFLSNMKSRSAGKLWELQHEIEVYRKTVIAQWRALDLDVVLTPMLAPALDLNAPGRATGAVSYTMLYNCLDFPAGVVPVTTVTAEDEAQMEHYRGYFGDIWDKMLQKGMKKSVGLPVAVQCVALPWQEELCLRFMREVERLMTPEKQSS
As to the kind of experiment: FAAH whole cell assay on CHO cells expressing human FAAH (human WC), AAMCA fluorescent substrate. The class given is cell-based. The following applies: human FAAH_CHO whole cell. From the text: To assist in assay development stable cell lines for human, murine and rat full length FAAH were developed. Human FAAH cDNA (Accession No: NM_001441.1) was purchased from Origene (Rockville, Md.). The full length FAAH was subcloned into the mammalian expression vector, pcDEF.neo, using XbaI and EcoRI restriction sites and used for stable cell line generation.
Murine (accession number NM_010173) and Rat FAAH (accession number NM_024132) was amplified by reverse transcriptase polymerase chain reaction (RT-PCR) from brain cDNA (BD Biosciences, San Jose, Calif.) using primers 1 and 2 or primers 1 and 3 respectively (see Table). The resulting PCR product was ligated into pCR4 TOPO and DNA sequence confirmed. The full length murine FAAH was subcloned into the mammalian expression vector, pcDEFneo using either EcoRI (murine) or KpnI and EcoRI (rat) restriction sites. Chinese hamster ovary cells (CHO) were transfected following manufacturers protocol (AMAXA). Forty eight hours post transfection, cells were trypsinized and transferred to 96 well plates in Iscove's DMEM media supplemented with 2 mM Glutamine, 10% fetal calf serum, 1 mg/ml geneticin and HT Supplement (0.1 mM sodium hypoxanthine, 0.016 mM thymidine) in order to isolate single clones. Following selection in geneticin, individual clones were selected and FAAH activity was assessed using a whole cell fluorescent anandamide assay, modified from Ramarao et al (2005). Following removal of tissue culture media cells were dislodged following addition of Cellstripper (Mediatech, Inc. Manassas, Va.) and transferred to 96 well black clear bottom assay plate, centrifuged at 1,000 rpm for 3 mins and media removed and replaced with assay buffer (50 mM Tris pH8.0, 1 mM EDTA, 0.1% fatty acid free BSA). The reaction was initiated by addition of fluorescent substrate, AMC Arachidonoyl Amide (Cayman Chemical, Ann Arbor, Mich.) to 1 μM and reaction allowed to proceed for 2 hours at room temperature. Release of fluorescence was monitored in a CytoFluor Multiplate Reader. Cells expressing the highest amount of FAAH activity were selected for study with FAAH inhibitors.
(American Radiolabeled Chemicals; 1 mCi/ml) with FAAH (Life Sciences (1995), 56, 1999-2005 and Journal of Pharmacology and Experimented Therapeutics (1997), 283, 729-734), Analytical. Biochemistry (2003), 318, 270-5. In addition, routine assays were performed monitoring hydrolysis of arachidonyl-7-amino-4-methylcoumarin amide (AAMCA) by following increase in fluorescence upon release of 7-amino 4-methyl coumarin (λEX=355 nm, μEM=460 nm). Analytical. Biochemistry (2005). 343, 143-51
Assays are performed on either cell lysate or microsome fractions prepared as described or in whole cell format employing either the fluorescent substrate AAMCA (Cayman chemical, Ann Arbor, Mich.,) or ^3H-anandamide ([ETHANOLAMINE-1-3H] American Radiolabeled Chemicals; 1 mCi/ml). The cell lysate or microsome assay is performed in black PerkinElmer OptiPlates-384F by adding FAAH_CHO (whole cell (human whole cell or human WC), cell lysate (human cell lysate or human LY) or microsome) in assay buffer (50 mM Phosphate, pH 8.0, 1 mM EDTA, 200 mM KCl, 0.2% glycerol, 0.1% fatty acid free BSA) to each well, followed by either DMSO or compound and allowed to incubate at 22-25° C. for fifteen minutes. AAMCA substrate was used to achieve a final concentration of 1 μM and reaction allowed to proceed at room temperature for 1-3 hours. Fluorescent release as a measure of FAAH activity was monitored by reading the plate in a Envision plate Reader (Ex: 360/40 nM; Em: 460/40 nM). Whole cell assay is conducted with cells harvested after rinsing tissue culture flasks three times with Ca^++Mg^++ free PBS, incubating for […] in Enzyme free dissociation media and centrifuging for 5 minutes at 1,000 rpm in table top centrifuge. […]
As for `Cn1cc2cc(-c3[nH]c4ncccc4c3Sc3ccc(Cl)cc3)ccc2n1` [Example B42], the concentration for half-maximal inhibition (IC50) was 5.84 nM.

Compound `Cn1cc2cc(-c3[nH]c4ncccc4c3Sc3ccc(Cl)cn3)ccc2n1` [Example B44] yielded a concentration for half-maximal inhibition (IC50) of 25 nM.

As for `OC[C@H]1CC[C@H](c2[nH]c3ncccc3c2Sc2ccc(Cl)cc2)CC1` [Example B52], the IC50 is 35.6 nM.

Compound `O=C(c1[nH]c2ncccc2c1Sc1ccc(Cl)cc1)N1CCC(O)CC1` [Example C6, {3-[(4-chlorophenyl)sulfanyl]-1H-pyrrolo[2,3-b]pyridin-2-yl}(4-hydroxypiperidin-1-yl)methanone] yielded a 50% inhibitory concentration (IC50) of 1090 nM.

Take `O=C(NCCO)c1[nH]c2ncccc2c1Sc1ccc(Cl)cc1` [Example C18]: 2980 nM corresponded to half-maximal inhibition (IC50).

Compound `O=C(NCCCO)c1[nH]c2ncccc2c1Sc1ccc(Cl)cc1` [Example C19] yielded an IC50 of 607 nM.

Compound `C[C@H](CO)NC(=O)c1[nH]c2ncccc2c1Sc1ccc(Cl)cc1` [Example C20] returned an IC50 of 2110 nM.

`O=C(NCCCCO)c1[nH]c2ncccc2c1Sc1ccc(Cl)cc1` [Example C21] displayed an IC50 of 363 nM.

The compound `O=C(NCC1(CO)CCOCC1)c1[nH]c2ncccc2c1Sc1ccc(Cl)cc1` [Example C22] showed an IC50 of 1170 nM.

As to `Cn1cccc2c(Sc3ccc(Cl)cc3)c(-c3ccc(C(O)C(F)F)cc3)nc1-2` (stereo not drawn) [Example E25], 59.5 nM corresponded to half-maximal inhibition (IC50).

In the case of `Cn1cccc2c(Sc3ccc(Cl)cc3)c(C(=O)NC3CCC(O)CC3)nc1-2` (stereo not drawn) [Example E26], the IC50 came to 504 nM.

Consider `C[C@@H](Cc1nc2n(C)cccc-2c1Sc1ccc(Cl)cc1)C(C)(C)O` [Example E27], for which the IC50 was determined as 112 nM.

On to `Cn1cccc2c(Sc3ccc(Cl)cc3)c(-c3ccc4c(c3)CNC4=O)nc1-2` [Example E28], for which the IC50 is 24 nM.

Compound `Cn1cc2cc(-c3nc4n(C)cccc-4c3Sc3ccc(Cl)cc3)ccc2n1` [Example E29] returned an IC50 of 17.3 nM.

Compound `Cn1cc2cc(-c3nc4n(C)cccc-4c3Sc3ccc(Cl)cn3)ccc2n1` [Example E30] displayed an IC50 of 87.2 nM.

For `Cn1cccc2c(Sc3ccc(Cl)cn3)c(-c3ccc4c(c3)CNC4=O)nc1-2` [Example E31], the IC50 is 144 nM.

Compound `COC(=O)N1CCC(c2nc3n(C)cccc-3c2Sc2ccc(Cl)cc2)CC1` [Example E32] had an IC50 of 9.35 nM.

In the case of `CCOC(=O)CCc1[nH]c2ncccc2c1Sc1ccc(Cl)cc1` [Example F3, Ethyl 3-{3-[(4-chlorophenyl)sulfanyl]-1H-pyrrolo[2,3-b]pyridin-2-yl}propanoate], 64.9 nM corresponded to half-maximal inhibition (IC50).

Compound `Clc1ccc(Sc2c(CC3CCCCC3)[nH]c3ncccc23)cc1` [Example F4] returned an IC50 of 266 nM.

In turn, `N#CCCCc1[nH]c2ncccc2c1Sc1ccc(Cl)cc1` [Example F6] showed an IC50 of 3470 nM.

As to `CCOC(=O)CCCc1[nH]c2ncccc2c1Sc1ccc(Cl)cc1` [Example F10], the IC50 came out at 350 nM.

On to `Clc1ccc(Sc2c(C3CCNCC3)[nH]c3ncccc23)cc1` [Example G3, 3-[(4-chlorophenyl)sulfanyl]-2-(piperidin-4-yl)-1H-pyrrolo[2,3-b]pyridine], for which the IC50 came to 672 nM.

`COC(=O)N1CCC(c2[nH]c3ncccc3c2Sc2ccc(Cl)cc2)CC1` [Example G5, Methyl 4-{3-[(4-chlorophenyl)sulfanyl]-1H-pyrrolo[2,3-b]pyridin-2-yl}piperidine-1-carboxylate] displayed an IC50 of 11.1 nM.

In turn, `COC(=O)CN1CCC(c2[nH]c3ncccc3c2Sc2ccc(Cl)cc2)CC1` [Example G7, Methyl (4-{3-[(4-chlorophenyl)sulfanyl]-1H-pyrrolo[2,3-b]pyridin-2-yl}piperidin-1-yl)acetate] registered an IC50 of 23.8 nM.

Consider `CC(C)(O)CCc1[nH]c2ncccc2c1Sc1ccc(Cl)cc1` [Example H2, 4-{3-[(4-chlorophenyl)sulfanyl]-1H-pyrrolo[2,3-b]pyridin-2-yl}-2-methylbutan-2-ol], for which the IC50 worked out at 152 nM.

`OCCCc1[nH]c2ncccc2c1Sc1ccc(Cl)cc1` [Example H4, 3-{3-[(4-chlorophenyl)sulfanyl]-1,1-pyrrolo[2,3-b]pyridin-2-yl}propan-1-ol] came in with an IC50 of 689 nM.

Compound `CC(C)(O)CN1CCC(c2[nH]c3ncccc3c2Sc2ccc(Cl)cc2)CC1` [Example H5] gave an IC50 of 31.8 nM.

The compound `OCCCCc1[nH]c2ncccc2c1Sc1ccc(Cl)cc1` [Example H6] yielded an IC50 of 523 nM.

In the case of `C[C@H](CO)Cc1[nH]c2ncccc2c1Sc1ccc(Cl)cc1` [Example H7], it took 1200 nM to reach half-maximal inhibition (IC50).

As to `C[C@@H](Cc1[nH]c2ncccc2c1Sc1ccc(Cl)cc1)C(C)(C)O` [Example H8], the IC50 was determined as 88.5 nM.

Values taken from patent US20130059850A1, “AZA-INDOLE DERIVATIVES USEFUL AS MODULATORS OF FAAH” (MERCK SHARP & DOHME CORP., priority 2010, published 2013).
